Measurements from US7018623B2, “B complex vitamin compositions that protect against cellular damage caused by ultraviolet light” (priority 2001, dated 2006).

What was measured:
[1] = tested on: human volunteers exposed to direct sunlight; assay: Oral self-administration of B vitamins by human subjects, sunburning on continuous exposure to sunlight; assay type: in vivo; details: for expected sunburning effects of continuous sun exposure: one patient, a year and a half, oral, B12 300–500 mcg/day, folic acid 2–5 mg/day, or both with niacinamide 200–500 mg/day
Protocol: 1. Over the period of four weeks a white middle aged couple in their forties on holiday in Mexico self administered 400–600 mcg vitamin B12/day in the form of 100 mcg tablets.
2. Over the period of a year and a half a […] self-administered vitamin B12 alone at 300 mcg to 500 mcg/day in the form of 100 mcg tablets, folic acid alone in the form of folic acid alone at 2 mg–5 mg/day in the form of 1 mg tablets or a combination of both vitamins in the same dose range taken with niacinamide 200 mg–500 mg/day in the form of 100 mg tablets. […] Normal burning rates returned within 24 hrs of the cessation of oral administration of the various formulations.
3. […] The published UVB index gave an expected time of continuous exposure to sunlight in the Edmonton AB area of 45 minutes. The maximum SPF (skin protection factor) was computed to be approximately 330/45=7.3.
5. These experiments have been repeated with approximately twenty human volunteers of various skin types ranging in age from 25 to 35 years. Most were female, one was a qualified physician, and many were qualified nurses or other healthcare professionals trained in observing symptoms of skin burning. Over the past year, a variety of different combinations of the three B complex vitamins were tested by exposure of these individuals to direct sunlight in locales such as Alberta Canada, Kelowna Canada, Mexico, Montego Bay Jamaica, San Diego Calif., Phoenix Ariz., Los Angeles Calif., and Honolulu, Hi. either in the course of their work or on vacation. The subjects had various skin types and were of many different nationalities.

[2] = human, topical application; cited from earlier work

Molecule	rate of sunburning when exposed continuously to sunlight ([1]; 400–600 mcg/day oral, four weeks, couple in Mexico, versus past experience and versus not taking the supplement)	expected sunburning effects of continuous sun exposure [1]	systemic absorption and urinary excretion after application to the skin [2]
vitamin B12	significant reduction in the rate of sunburning	some amelioration of the expected sunburning effects	–
Nc1nc2ncc(CNc3ccc(C(=O)N[C@@H](CCC(=O)O)C(=O)O)cc3)nc2c(=O)[nH]1 [folic acid]	–	some amelioration of the expected sunburning effects	–
COc1ccc(C(=O)c2ccccc2)c(O)c1 [oxybenzone]	–	–	absorbed systemically and excreted in human urine soon after application to the skin
